Data as given in patent publication EP4603105A1, “PHARMACEUTICAL COMPOSITION CONTAINING CYCLIC COMPOUND HAVING SELECTIVE KRAS INHIBITORY EFFECT AGAINST HRAS AND NRAS” (CHUGAI SEIYAKU KABUSHIKI KAISHA, priority 2022, dated 2024).
pIC50, pKd: −log10 of the molar value.

Key:
HRAS wild-type protein = HRAS wild-type protein (Homo sapiens, UniProt P01112); experiment: Binding to HRAS by surface plasmon resonance (SPR), KD and KD ratio to KRAS
In short: (§1)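 Biotinylated GDP-bound RAS was captured at about 100–300 RU. Running buffer: HBS pH 7.4, 10 mM MgCl2, 10 µM GDP, 1 mM DTT, 0.01% Tween 20, 4% DMSO.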

[1] = system: human lung cancer strain NCI-H441; format: cell-based
In short: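 Step one: dispense the test compound in serial DMSO dilutions. Step three: add the reagent and measure […].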

[2] = target: GDP-bound NRAS wild-type protein (Homo sapiens, UniProt P01111); experiment: Binding to NRAS by surface plasmon resonance (SPR), KD and KD ratio to KRAS
In short: as §1

[3] = target: GDP-bound KRAS wild-type protein (Homo sapiens, UniProt P01116); experiment: Binding to KRAS by surface plasmon resonance (SPR), dissociation constant KD
In short: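 GDP-loaded biotinylated Avi-tag RAS proteins (E. coli-expressed) captured on a Biotin CAPture chip at ~100–300 RU; single-cycle kinetics at 30°C, 100 µL/min, 75 s injections of rising compound concentrations. HBS pH 7.4 running buffer with 1 mM DTT, 10 mM MgCl2, 10 µM GDP, 4% DMSO. KD from 1:1 binding fit.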

[4] = ratio of KD for HRAS wild-type protein to KD for KRAS
[5] = ratio of KD for GDP-bound NRAS wild-type protein to KD for KRAS
[6] = Single Cycle Kinetics, 1:1 binding model
[7] = ratio of the KD value with respect to HRAS wild-type protein to the KD value with respect to KRAS
[8] = ratio of the KD value with respect to GDP-bound NRAS wild-type protein to the KD value with respect to KRAS

GDP-bound NRAS wild-type protein, sequence (P01111 whole entry): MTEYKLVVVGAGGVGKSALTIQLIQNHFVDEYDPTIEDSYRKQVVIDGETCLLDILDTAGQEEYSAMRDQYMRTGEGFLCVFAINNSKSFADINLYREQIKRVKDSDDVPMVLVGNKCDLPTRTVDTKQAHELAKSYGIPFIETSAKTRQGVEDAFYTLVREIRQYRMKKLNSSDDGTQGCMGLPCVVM
HRAS wild-type protein, sequence (P01112 whole entry): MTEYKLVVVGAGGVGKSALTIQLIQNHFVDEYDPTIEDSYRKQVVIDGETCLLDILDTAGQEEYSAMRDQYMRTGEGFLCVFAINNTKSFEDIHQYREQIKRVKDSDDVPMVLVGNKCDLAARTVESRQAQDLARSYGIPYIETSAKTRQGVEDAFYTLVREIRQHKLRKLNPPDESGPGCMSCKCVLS
GDP-bound KRAS wild-type protein, sequence (P01116 1-188 isoform P01116-2): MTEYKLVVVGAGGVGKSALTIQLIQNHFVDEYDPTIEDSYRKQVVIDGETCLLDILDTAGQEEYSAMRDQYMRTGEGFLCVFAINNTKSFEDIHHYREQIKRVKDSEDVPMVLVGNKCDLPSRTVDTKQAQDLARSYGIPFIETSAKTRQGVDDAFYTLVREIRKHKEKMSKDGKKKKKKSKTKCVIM

Structure (SMILES)	HRAS /KRAS (HRAS wild-type protein; [4])	pIC50 [1]	NRAS /KRAS [2, 5]	pKd ([3]; 1:1 binding model)	HRAS /KRAS (HRAS wild-type protein; ratio of KD value for HRAS wild-type protein to KD value for KRAS (SPR))	NRAS /KRAS ([2]; ratio of KD value for GDP-bound NRAS wild-type protein to KD value for KRAS (SPR))	pKd [3, 6]	HRAS /KRAS (HRAS wild-type protein; [7])	NRAS /KRAS [2, 8]	pKd ([3]; Single Cycle Kinetics)
CCC(CC)[C@H]1C(=O)N(C)[C@H](C(=O)N(C)C)CC(=O)N(C)[C@@H](COC)C(=O)N[C@@H]([C@@H](C)CC)C(=O)N(C)CC(=O)N(C)[C@H]2C/C=C\CCN(C2=O)[C@@H](Cc2ccc(C)cc2)C(=O)N(C)CC(=O)N[C@@H](CCc2cc(F)c(C(F)(F)F)c(F)c2)C(=O)N2CCCC[C@H]2C(=O)NC2(CC(C)(C)C2)C(=O)N1C [PP2922]	A (a compound having 10 or more and less than 20 is denoted as A)	7.26	AA (a compound having 20 or more is denoted as AA)	8.96						
CCC[C@H]1C(=O)N[C@@H]([C@@H](C)CC)C(=O)N(C)CC(=O)N(C)[C@H]2C/C=C\CCN(C2=O)[C@@H](Cc2ccc(C)cc2)C(=O)N(C)CC(=O)N[C@@H](CCc2ccc(C(F)(F)F)c(Cl)c2)C(=O)N2C[C@H](C)C[C@H]2C(=O)NC2(CC(C)(C)C2)C(=O)N(C)[C@@H](C2CCCC2)C(=O)N(C)[C@H](C(=O)N(C)CC)CC(=O)N1C [PP1894]		7.80			A (a compound having 10 or more and less than 20 is denoted as A)	A (a compound having 10 or more and less than 20 is denoted as A)	9.70			
CCO[C@@H]1C[C@H]2C(=O)NC3(CCC3)C(=O)N(C)[C@@H](C3CCCC3)C(=O)N(C)[C@H](C(=O)N(C)C)CC(=O)N(C)[C@@H](CC(C)(C)C)C(=O)N[C@@H]([C@@H](C)CC)C(=O)N(C)CC(=O)N(C)[C@H]3CCCCCN(C3=O)[C@@H](Cc3ccc(C(F)(F)F)cc3)C(=O)N(C)CC(=O)N[C@@H](CCc3cc(F)c(C(F)(F)F)c(F)c3)C(=O)N2C1 [PP0669]		7.69					9.28	B (a compound having 3 or more and less than 10 is denoted as B)	B (a compound having 3 or more and less than 10 is denoted as B)	
CC[C@H](C)[C@@H]1NC(=O)[C@H](CC(C)C)N(C)C(=O)C[C@@H](C(=O)N2CCOCC2)N(C)C(=O)[C@H](C2CCCC2)N(C)C(=O)C2(CCC2)NC(=O)[C@@H]2C[C@@H](OCC3CC3)CN2C(=O)[C@H](CCc2cc(F)c(C(F)(F)F)c(F)c2)NC(=O)CN(C)C(=O)[C@H](Cc2ccc(C(F)(F)F)cc2)N2CCCC[C@@H](C2=O)N(C)C(=O)CN(C)C1=O [PP1000]	B (a compound having 3 or more and less than 10 is denoted as B)	8.12	B (a compound having 3 or more and less than 10 is denoted as B)							10.41
CCO[C@@H]1C[C@H]2C(=O)NC3(CC(C)(C)C3)C(=O)N(C)[C@@H](C3CCCC3)C(=O)N(C)[C@H](C(=O)N(C)CC)CC(=O)N(C)[C@@H]([C@H](C)OC)C(=O)N[C@@H]([C@@H](C)CC)C(=O)N(C3CC3)CC(=O)N(C)[C@H]3C/C=C\CCN(C3=O)[C@@H](Cc3ccc(C)cc3)C(=O)N(C)CC(=O)N[C@@H](CCc3ccc(C(F)(F)F)c(Cl)c3)C(=O)N2C1 [PP3159]	A (a compound having 10 or more and less than 20 is denoted as A)	7.30	A (a compound having 10 or more and less than 20 is denoted as A)	9.22						
CC[C@H](C)[C@@H]1NC(=O)[C@H](CC(C)C)N(C)C(=O)C[C@@H](C(=O)N(C)C)N(C)C(=O)[C@H](C2CCCC2)N(C)C(=O)C2(CC(C)(C)C2)NC(=O)[C@@H]2C[C@@H](C)CN2C(=O)[C@H](CCc2cc(F)c(C(F)(F)F)c(F)c2)NC(=O)CN(C)C(=O)[C@H](Cc2ccc(C)cc2)N2CC/C=C\C[C@@H](C2=O)N(C)C(=O)CN(C)C1=O [PP2223]		8.28					10.00	A (a compound having 10 or more and less than 20 is denoted as A)	A (a compound having 10 or more and less than 20 is denoted as A)	
CCO[C@@H]1C[C@H]2C(=O)NC3(CC(C)(C)C3)C(=O)N(C)[C@@H](C3CCCC3)C(=O)N(C)[C@H](C(=O)N(C)C)CC(=O)N(C)[C@@H]([C@@H](C)OC)C(=O)N[C@@H]([C@@H](C)CC)C(=O)N(C3CC3)CC(=O)N(C)[C@H]3C/C=C\CCN(C3=O)[C@@H](Cc3ccc(C(F)(F)F)cc3)C(=O)N(C)CC(=O)N[C@@H](CCc3ccc(C(F)(F)F)c(OC)c3)C(=O)N2C1 [PP3200]	A (a compound having 10 or more and less than 20 is denoted as A)	8.15	A (a compound having 10 or more and less than 20 is denoted as A)	9.68						
CCO[C@@H]1C[C@H]2C(=O)NC3(CCC3)C(=O)N(C)[C@@H](C3CCCC3)C(=O)N(C)[C@H](C(=O)N(C)C)CC(=O)N(C)[C@@H](CC)C(=O)N[C@@H]([C@@H](C)CC)C(=O)N(C)CC(=O)N(C)[C@H]3CCCCCN(C3=O)[C@@H](Cc3ccc4ccsc4c3)C(=O)N(C)CC(=O)N[C@@H](CCc3cc(F)c(C(F)(F)F)c(F)c3)C(=O)N2C1 [PP0910]	B (a compound having 3 or more and less than 10 is denoted as B)	7.18	B (a compound having 3 or more and less than 10 is denoted as B)							9.21
CCC[C@H]1C(=O)N[C@@H](C2CCCC2)C(=O)N(C)CC(=O)N(C)[C@H]2C/C=C\CCN(C2=O)[C@@H](Cc2ccc(C)cc2)C(=O)N(C)CC(=O)N[C@@H](CCc2ccc(C(F)(F)F)c(Cl)c2)C(=O)N2C[C@H](OCC)C[C@H]2C(=O)NC2(CC(C)(C)C2)C(=O)N(C)[C@@H](CC(C)C)C(=O)N(C)[C@H](C(=O)N(C)C)CC(=O)N1C [PP2190]		7.07					9.04	A (a compound having 10 or more and less than 20 is denoted as A)	A (a compound having 10 or more and less than 20 is denoted as A)	
CCO[C@@H]1C[C@H]2C(=O)NC3(CC(C)(C)C3)C(=O)N(C)[C@@H](C3CCCC3)C(=O)N(C)[C@H](C(=O)N(C)CC)CC(=O)N(C)[C@H]3CC/C=C/c4ccc(cc4)C[C@@H](C(=O)N(C)CC(=O)N[C@@H](CCc4ccc(Cl)c(Cl)c4)C(=O)N2C1)N1CC/C=C\C[C@@H](C1=O)N(C)C(=O)CN(C1CC1)C(=O)[C@H]([C@@H](C)CC)NC3=O [PP2598]	A (a compound having 10 or more and less than 20 is denoted as A)	7.64	A (a compound having 10 or more and less than 20 is denoted as A)	8.72						
CCC[C@H]1C(=O)N[C@@H]([C@@H](C)CC)C(=O)N(C)CC(=O)N(C)[C@H]2C/C=C\CCN(C2=O)[C@@H](Cc2ccc(C)cc2)C(=O)N(C)CC(=O)N[C@@H](CCc2cc(F)c(C(F)(F)F)c(F)c2)C(=O)N2C[C@H](OCC)C[C@H]2C(=O)NC2(CC(C)(C)C2)C(=O)N(C)[C@@H](CC2CC2)C(=O)N(C)[C@H](C(=O)N(C)C)CC(=O)N1C [PP2797]	A (a compound having 10 or more and less than 20 is denoted as A)	7.28	A (a compound having 10 or more and less than 20 is denoted as A)	9.22						
CCO[C@@H]1C[C@H]2C(=O)NC3(CCC3)C(=O)N(C)[C@@H](C3CCCC3)C(=O)N(CCC3CCCC3)[C@H](C(=O)N3CCOCC3)CC(=O)N(C)[C@@H](CC(C)C)C(=O)N[C@@H]([C@@H](C)CC)C(=O)N(C)CC(=O)N(C)[C@H]3CCCCCN(C3=O)[C@@H](Cc3ccc(C(F)(F)F)cc3)C(=O)N(C)CC(=O)N[C@@H](CCc3cc(F)c(C(F)(F)F)c(F)c3)C(=O)N2C1 [PP0641]		< 5.89					7.59	A (a compound having 10 or more and less than 20 is denoted as A)	A (a compound having 10 or more and less than 20 is denoted as A)	
CC[C@H](C)[C@@H]1NC(=O)[C@H](CC(C)C)N(C)C(=O)C[C@@H](C(=O)N2CCOCC2)NC(=O)[C@H](C2CCCC2)N(C)C(=O)C2(CCCC2)NC(=O)[C@@H]2CCCN2C(=O)[C@H](CCc2cc(F)c(C(F)(F)F)c(F)c2)NC(=O)CN(C)C(=O)[C@H](Cc2ccc(C(F)(F)F)cc2)N2CCCC[C@@H](C2=O)N(C)C(=O)CN(C)C1=O [PP0541]		7.08					9.33	B (a compound having 3 or more and less than 10 is denoted as B)	B (a compound having 3 or more and less than 10 is denoted as B)	
CCC[C@H]1C(=O)N[C@@H](C2CCCC2)C(=O)N(C)CC(=O)N(C)[C@H]2C/C=C\CCN(C2=O)[C@@H](Cc2ccc(C)cc2)C(=O)N(C)CC(=O)N[C@@H](CCc2ccc(C(F)(F)F)c(OC)c2)C(=O)N2CC3(CC3)C[C@H]2C(=O)NC2(CC(C)(C)C2)C(=O)N(C)[C@@H](CC(C)(C)C)C(=O)N(C)[C@H](C(=O)N(C)C)CC(=O)N1C [PP3010]	B (a compound having 3 or more and less than 10 is denoted as B)	7.74	B (a compound having 3 or more and less than 10 is denoted as B)	9.39						
CC[C@H](C)[C@@H]1NC(=O)[C@H](CC(C)C)N(C)C(=O)C[C@@H](C(=O)N2CCOCC2)N(C)C(=O)[C@H](C2CCCC2)N(C)C(=O)C2(CCC2)NC(=O)[C@@H]2[C@@H](OCC3CCCC3)CCN2C(=O)[C@H](CCc2cc(F)c(C(F)(F)F)c(F)c2)NC(=O)CN(C)C(=O)[C@H](Cc2ccc(C(F)(F)F)cc2)N2CCCCC[C@@H](C2=O)N(C)C(=O)CN(C)C1=O [PP1011]	B (a compound having 3 or more and less than 10 is denoted as B)	6.50	A (a compound having 10 or more and less than 20 is denoted as A)							8.43
